The source of these data is patent US3992540A, “3-Quinoline-substituted 4-oxy-carboxamides” (Roussel-UCLAF, priority 1974, dated 1976).

Data set [1] concerns stretchings provoked by intraperitoneal injection of acetic acid to mice. Kind of data set: Analgesic activity, acetic acid stretching (writhing) test in mice (Koster et al). It counts as in vivo. The settings on record: Mus musculus, oral, 30 minutes before acetic acid injection (100 mg/kg i.p.), stretchings totaled over 15 minutes, read-out: DA50, dose which reduced by 50% the number of stretchings as compared to the controls. How it is done: The test was based on that of Koster et al [Fed. Proc., Vol. 18 (1959), p. 412] in which the intraperitoneal injection of acetic acid to mice provokes repeated stretching and twisting movements which persist for more than 6 hours. Analgesics prevent or suspress these syndromes which are considered to be an exteriorization of a diffuse abdominal pain. A 1% solution of acetic acid in water was used at a dose of 0.01 ml/g or 100 mg/kg of acetic acid to release the syndrome.
The test product was orally administered 30 minutes before the acetic acid injection and the mice were fasted for 24 hours before the start of the test. The stretchings for the mice were observed and totaled for each mouse in a 15 minutes observation period starting just after the acetic acid injection. The results were expressed as DA50, that dose which reduced by 50% the number of stretchings as compared to the controls and the DA50 for N-[2-thiazolyl]-4-hydroxy-8 -trifluoromethyl-3-quinoline-carboxamide was 5 mg/kg; for N-[2 -thiazolyl]-4-hydroxy-8-chloro-3-quinoline-carboxamide was 4 mg/kg; and for N-[2-thiazolyl]-4-hydroxy-7-trifluoromethyl- 3-quinoline-carboxamide was 7 mg/kg.

Data set [2] in a line: Acute toxicity in mice, intraperitoneal. The settings on record: mouse, in vivo, ip, observed for a week, graphically determined by Miller et al method, read-out: DL50. Here is the method: The acute toxicity was determined on groups of 10 mice weighing between 18-22 g and the test product was administered intraperitoneally in increasing dose in suspensions at 0.25 % in carboxymethyl-cellulose added of Tween 80.

For data set [3], the system named is mice. The settings on record: mouse, in vivo, po, 500 mg/kg.

As to `O=C(Nc1nccs1)c1cnc2cc(C(F)(F)F)ccc2c1O` [N-[2-thiazolyl]-4-hydroxy-7-trifluoromethyl-3-quinoline-carboxamide], in data set [1], the ED50 turned out to be 7 mg/kg.
In the case of `O=C(Nc1nccs1)c1cnc2c(Cl)cccc2c1O` [N-[2-thiazolyl]-4-hydroxy-8-chloro-3-quinoline-carboxamide], the ED50 in data set [1] was determined as 4 mg/kg.
In the case of `O=C(Nc1nccs1)c1cnc2c(C(F)(F)F)cccc2c1O` [N-[2-thiazolyl]-4-hydroxy-8-trifluoromethyl-3-quinoline-carboxamide], the LD50 at 168 h in data set [2] was determined as 225 mg/kg. Also, in data set [3], the “tolerance when orally administered” value is “very well tolerated”. For the same compound, in data set [1], the ED50 worked out at 5 mg/kg.
